What was measured:
HA22T-parental cells = details: 24 hours
143B cells [1] = experiment: MTT assay, viability of 143B cells; type: cell-based, human; details: 24 hours
Protocol: Human osteosarcoma 143B cells (commercially available from ATCC under the number CRL-8303) were cultured in DMEM supplemented with 10% FBS and 1% sodium pyruvate.

LoVo-OXAR cells [2] = details: single agent: compound (II) 2000 μg/ml or oxaliplatin 50 μg/ml, 72 hours
[3] = tested on: EMT markers in LoVo-parental cells; details: immunofluorescence
Excerpt: (§1) Vimentin and E-cadherin are molecular markers linked to tumor progression through their roles in EMT, which is a pathological process contributing to migration and invasion of cancer cells and tumor progression. Vimentin is a key component of intermediate filaments, which helps maintain cellular integrity and resistance to stress. E-cadherin plays a role in maintaining epithelial phenotypes by mediating contact inhibition when cells proliferate and reach confluence. To further investigate the influence of the compound (II) on EMT marker expression, western blotting, immunofluorescence detection, and quantitative real-time reverse transcription polymerase chain reaction (qRT-PCR) were performed in LoVo-parental and LoVo-OXAR cells treated with various doses of the compound (II) for 24 hours.
(§2) The cells were then permeabilized with 0.1% Triton X-100 in 0.1% sodium citrate and the well was blocked with blocking buffer (2% bovine serum albumin), followed by immunofluorescence staining. The cells were incubated with primary antibodies against vimentin and E-cadherin for 24 hours at 4° C. and subsequently incubated with fluorescent secondary antibodies for 1 hour at 25° C. before DAPI staining and observation using fluorescence microscopy.

[4] = tested on: EMT markers in LoVo-OXAR cells; details: immunofluorescence
Excerpt: as §1, §2

LoVo-OXAR cells [5] = details: 24 hours
[6] = tested on: EMT markers in LoVo-OXAR cells; details: qRT-PCR
Excerpt: as §1
Total RNA from the cells after the indicated treatments was extracted using the GeneJET RNA purification kit (ThermoFisher Scientific, Lithuania) and reverse transcribed to cDNA using a GScript First-Strand Synthesis Kit, a cDNA synthesis kit, and Oligo-dT primers according to the manufacturer's instructions. RT-PCR was performed using ORA^T SEE qPCR Green ROX L Mix, 2× (HighQu, USA). Primers for EMT markers (Vimentin, E-cadherin, TJP1, and FN1) and GAPDH (as endogenous control) were synthesized by Bio-ProTech based the sequences in TABLE 1. The 2^−ΔΔCt method was used to calculate a relative fold change in gene expression. […] TJP1 is a marker of epithelial cells that disappears during EMT and cancer development. In contrast, FN1 is involved in the occurrence and development of various tumors and acts as a critical gene in gastric cancer.

LoVo-parental cells [7] = details: single agent: compound (II) 500 μg/ml or oxaliplatin 50 μg/ml, 72 hours
LoVo-parental cells [8] = details: high dose 100 mg/kg/day orally, compared to low dose 10 mg/kg/day
Excerpt: (§3) Six-week-old male NU/NU mice were purchased from Bio LASCO Taiwan Co., Ltd (Taipei, Taiwan) and randomly assigned into six groups (Groups 1 to 6), each containing three mice. […] All mice were sacrificed on day 30, and the mouse lung, kidney, spleen, and heart were examined for metastatic cancer cells.

LoVo-OXAR cells [9] = details: high dose 100 mg/kg/day orally, compared to low dose 10 mg/kg/day
Excerpt: as §3

MIA PaCa-2 cells = details: six days
Protocol: (§4) Human pancreatic carcinoma MIA PaCa-2 cells (commercially available from ATCC under the number CRL-1420) were cultured in DMEM supplemented with 10% FBS, 1 mM sodium pyruvate, and 2.5% horse serum. Human pancreatic epithelioid carcinoma PANC-1 cells (commercially available from ATCC under the number CRL-1469) were cultured in DMEM supplemented with 10% FBS and 1 mM sodium pyruvate.

PANC-1 cells = details: six days
Protocol: as §4

A431 cells = details: 1-1000 μg/ml, 48 hours
Protocol: Human epidermoid carcinoma A431 cells (commercially available from ATCC under the number CRL-1555) were cultured in DMEM supplemented with 10% FBS.

[10] = tested on: EMT markers in 143B cells; details: western blot
Protocol: (§5) Transwell migration assay, as described in Example 5.1, was performed on 143B cells to investigate how the compound (II) would affect the migration ability of bone cancer cells.

143B cells [11] = details: Transwell migration
Protocol: as §5

HA22T-HDACiR cells = details: 0-1250 μg/ml, 24 hours
[12] = tested on: EMT markers in LoVo-parental cells; details: western blot, 24 hours
Excerpt: as §1
(§6) The cells after the indicated treatments were harvested and subject to western blot analysis using primary antibodies against vimentin, E-cadherin, and GAPDH (San-ta Cruz Biotechnology Inc. Santa Cruz, California, USA). GAPDH was used as an internal control.

[13] = tested on: EMT markers in LoVo-OXAR cells; details: western blot, 24 hours
Excerpt: as §1, §6

LoVo-parental cells [14] = details: 24 hours

**Q.** With CC(=O)[O-].CC(=O)[O-].CC(=O)[O-].CC(=O)[O-].CC(=O)[O-].CC(=O)[O-].O.O.O.O.O=[N+]([O-])[O-].[Cr+3].[Fe+3].[Fe+3].[OH-].[OH-] [compound (II)] as the compound, how does the “viability of HA22T-parental cells” value (HA22T-parental cells; 0-1250 μg/ml) read?
**A.** Its value is “reduced the viability of both liver cancer cells in a dose-dependent manner”.

**Q.** And the “IC50 against HA22T-parental cells” value (HA22T-parental cells; MTT)?
**A.** Its value is “approximately 1000 μg/ml”.

**Q.** And the “viability of 143B cells” value (143B cells [1]; 0-4000 μg/ml)?
**A.** Its value is “reduced the viability of the osteosarcoma cells in a dose-dependent manner”.

**Q.** And the “IC50 against 143B cells” value (143B cells [1]; MTT)?
**A.** The value was “approximately 500 μg/ml”.

**Q.** What about the “invasion rate of LoVo-OXAR cells” value (LoVo-OXAR cells [2]) of the same compound?
**A.** The value was “significantly decreased”.

**Q.** What about the “expression of E-cadherin” value [3] of the same compound?
**A.** Its value is “significantly increased”.

**Q.** And the vimentin expression [3]?
**A.** The vimentin expression was “significantly suppressed”.

**Q.** And the “expression of E-cadherin” value [4]?
**A.** The value was “significantly increased”.

**Q.** And the vimentin expression [4]?
**A.** Its vimentin expression is “significantly suppressed”.

**Q.** What about the “viability of LoVo-OXAR cells” value (LoVo-OXAR cells [5]; 0-4000 μg/ml) of the same compound?
**A.** Its value is “reduced the viability of both colorectal cancer cells in a dose-dependent manner”.

**Q.** And the “IC50 against LoVo-OXAR cells” value (LoVo-OXAR cells [5]; MTT)?
**A.** Its value is “about 2000 μg/ml”.

**Q.** What about the “E-cadherin mRNA expression” value [6] of the same compound?
**A.** Its value is “increased”.

**Q.** And the “FN1 mRNA expression” value [6]?
**A.** Its value is “decreased”.

**Q.** What about the “TJP1 mRNA expression” value [6] of the same compound?
**A.** Its value is “increased”.

**Q.** What about the “vimentin mRNA expression” value [6] of the same compound?
**A.** The value was “decreased”.

**Q.** And the “invasion rate of LoVo-parental cells” value (LoVo-parental cells [7])?
**A.** The value was “significantly decreased”.

**Q.** What about the “metastasis to the lung, kidney, spleen, and heart” value (LoVo-parental cells [8]) of the same compound?
**A.** Its value is “effectively inhibited the metastasis”.

**Q.** What about the “metastasis to the lung, kidney, spleen, and heart” value (LoVo-OXAR cells [9]) of the same compound?
**A.** The value was “effectively inhibited the metastasis”.

**Q.** What about the “viability of MIA PaCa-2 cells” value (MIA PaCa-2 cells; 0-2000 μg/ml) of the same compound?
**A.** Its value is “reduced the viability of both pancreatic cancer cells in a dose-dependent manner”.

**Q.** And the “IC50 against MIA PaCa-2 cells” value (MIA PaCa-2 cells; MTT)?
**A.** Its value is “approximately 660 μg/ml”.

**Q.** And the “viability of PANC-1 cells” value (PANC-1 cells; 0-2000 μg/ml)?
**A.** The value was “reduced the viability of both pancreatic cancer cells in a dose-dependent manner”.

**Q.** What about the “IC50 against PANC-1 cells” value (PANC-1 cells; MTT) of the same compound?
**A.** Its value is roughly 1700 mg/L.

**Q.** What about the “viability of A431 cells” value (A431 cells) of the same compound?
**A.** Its value is “reduced the viability of the A431 cells in a dose-dependent manner”.

**Q.** What about the E-cadherin expression [10] of the same compound?
**A.** The E-cadherin expression was “increasing”.

**Q.** What about the vimentin expression [10] of the same compound?
**A.** Its vimentin expression is “significantly decreased”.

**Q.** What about the “crawling (migration) of 143B cells” value (143B cells [11]) of the same compound?
**A.** The value was “inhibited by the compound (II) in a dose-dependent manner”.

**Q.** And the “viability of HA22T-HDACiR cells” value (HA22T-HDACiR cells)?
**A.** The value was “reduced the viability of both liver cancer cells in a dose-dependent manner”.

**Q.** And the “protein expression of E-cadherin” value [12]?
**A.** The value was “increased”.

**Q.** And the “protein expression of vimentin” value [12]?
**A.** The value was “significantly reduced”.

**Q.** And the “protein expression of E-cadherin” value [13]?
**A.** Its value is “increased”.

**Q.** And the “protein expression of vimentin” value [13]?
**A.** The value was “significantly reduced”.

**Q.** What about the “viability of LoVo-parental cells” value (LoVo-parental cells [14]; 0-4000 μg/ml) of the same compound?
**A.** Its value is “reduced the viability of both colorectal cancer cells in a dose-dependent manner”.

**Q.** And the “IC50 against LoVo-parental cells” value (LoVo-parental cells [14]; MTT)?
**A.** Its value is “about 500 μg/ml”.

Reference: patent US20260199371A1, “COORDINATION COMPOUND, COMPOSITIONS, AND USES THEREOF FOR TREATING CANCERS” (HUEIYUAN BIOTECH LLC, priority 2023, published 2026)
